Measured values taken from US8119681B2, “2-[1-phenyl-5-hydroxy or methoxy-4alpha-methyl-hexahydrocyclopenta [ƒ]indazole-5-YL]ethyl phenyl derivatives as glucocorticoid receptor ligands” (Merck Sharp & Dohme Corp., priority 2006, dated 2012).

Tests used:
[1] = target: T1, human GR (Homo sapiens, UniProt P04150); experiment: Trans-Activation Modulation of Glucocorticoid Receptor (GRAMMER), MMTV-LUC reporter gene; assay type: cell-based; design: endogenous in cells; settings: for Emax: A549, read-out: Transactivation A549 Cells GRAMMER Emax (%); for EC50: Table 1, A549 cells, IP = inflection point, read-out: Transactivation A549 Cells GRAMMER IP
T1 sequence (P04150 1-777): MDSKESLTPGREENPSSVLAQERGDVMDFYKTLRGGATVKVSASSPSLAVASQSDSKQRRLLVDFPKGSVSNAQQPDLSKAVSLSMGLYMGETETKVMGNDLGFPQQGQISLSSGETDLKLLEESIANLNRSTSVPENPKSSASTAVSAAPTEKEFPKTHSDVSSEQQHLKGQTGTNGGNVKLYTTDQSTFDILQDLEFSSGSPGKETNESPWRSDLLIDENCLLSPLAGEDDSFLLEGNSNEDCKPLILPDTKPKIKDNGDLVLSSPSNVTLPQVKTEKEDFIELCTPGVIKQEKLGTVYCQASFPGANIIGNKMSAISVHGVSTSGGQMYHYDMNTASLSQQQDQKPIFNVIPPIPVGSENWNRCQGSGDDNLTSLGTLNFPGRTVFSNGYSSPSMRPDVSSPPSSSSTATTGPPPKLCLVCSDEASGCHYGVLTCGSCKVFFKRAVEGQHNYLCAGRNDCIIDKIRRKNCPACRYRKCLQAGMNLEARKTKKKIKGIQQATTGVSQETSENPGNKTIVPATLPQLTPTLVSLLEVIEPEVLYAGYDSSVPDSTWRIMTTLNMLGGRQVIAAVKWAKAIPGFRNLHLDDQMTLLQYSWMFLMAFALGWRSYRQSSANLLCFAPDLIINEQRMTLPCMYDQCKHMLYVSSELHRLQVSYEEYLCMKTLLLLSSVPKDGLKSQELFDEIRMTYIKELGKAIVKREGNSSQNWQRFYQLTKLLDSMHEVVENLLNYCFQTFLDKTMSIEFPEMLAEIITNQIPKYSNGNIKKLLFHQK

[2] = target: T1, human GR; experiment: Transrepression Assay (GITAR), TNFα-β-lactamase reporter gene in U937 cells; assay type: cell-based; design: U937 cells contain an endogenous glucocorticoid receptor (GR); endogenous in cells; host or cells: U937 cells stably transfected with the TNF-α promoter/β-lactamase reporter only; settings: for EC50: IP = inflection point, read-out: Transrepression U937 Cells GITAR IP; for GITAR > GRAMM % SEP: separation of GITAR Emax over GRAMMER Emax; for Emax: U-937
How it was run: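 Reporter readout used CCF2-AM loading for 70–90 min at room temperature after overnight (~18 h, 37 °C) PMA (5 ng/ml final) and LPS (100 ng/ml final) stimulation of compound-treated (30–45 min) TNFα-β-lactamase U937 cells expressing native GR. Activity was normalised to 100 nM dexamethasone repression.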

[3] = 100 nM dexamethasone = 100% activity, read-out: maximal activity in the transrepression assay
[4] = Table 1, U937 cells, activity repressed by 100 nM dexamethasone = 100%, read-out: Transrepression U937 Cells GITAR Emax (%)

C[C@]12Cc3cnn(-c4ccc(F)cc4)c3C=C1CC[C@@]2(O)CCc1cccc(F)c1CC(N)=O [Example 194, 2-(2-fluoro-6-{2-[(4αS,5R)-1-(4-fluorophenyl)-5-hydroxy-4α-methyl-1,4,4α,5,6,7-hexahydrocyclopenta[f]indazol-5-yl]ethyl}phenyl)acetamide] gave an Emax [1] of 38%, an EC50 [1] of 99 nM and an EC50 ([2]; Table 1, U937 cells) of 87 nM. For the same molecule, the “GITAR > GRAMM % SEP” value ([2]; Table 1) was 41%, the Emax [2, 3] was 5 to 100% and the Emax [2, 4] was 78%.
C[C@]12Cc3cnn(-c4ccc(F)cc4)c3C=C1CC[C@@]2(O)CCc1cccc(Cl)c1CC(N)=O [Example 197, 2-(2-chloro-6-{2-[(4αS,5R)-1-(4-fluorophenyl)-5-hydroxy-4α-methyl-1,4,4α,5,6,7-hexahydrocyclopenta[f]indazol-5-yl]ethyl}phenyl)acetamide] showed an Emax [1] of 46%, an EC50 [1] of 249 nM and an EC50 ([2]; Table 1, U937 cells) of 138 nM. The “GITAR > GRAMM % SEP” value ([2]; Table 1) was 21%, the Emax [2, 3] was 5 to 100% and the Emax [2, 4] was 67%.
CCC(O)(C(N)=O)c1ccccc1CC[C@]1(O)CCC2=Cc3c(cnn3-c3ccc(F)cc3)C[C@@]21C (stereo partly drawn) [Example 199, 2-(2-{2-[(4αS,5R)-1-(4-fluorophenyl)-5-hydroxy-4α-methyl-1,4,4α,5,6,7-hexahydrocyclopenta[f]indazol-5-yl]ethyl}phenyl)-2-hydroxybutanamide] showed an Emax [1] of 36%, an EC50 [1] of 83 nM and an EC50 ([2]; Table 1, U937 cells) of 77 nM. For the same molecule, the “GITAR > GRAMM % SEP” value ([2]; Table 1) was 32%, the Emax [2, 3] was 5 to 100% and the Emax [2, 4] was 68%.
Work on CC(C)C(O)(C(N)=O)c1ccccc1CC[C@]1(O)CCC2=Cc3c(cnn3-c3ccc(F)cc3)C[C@@]21C (stereo partly drawn) [Example 201, 2-(2-{2-[(4αS,5R)-1-(4-fluorophenyl)-5-hydroxy-4α-methyl-1,4,4α,5,6,7-hexahydrocyclopenta[f]indazol-5-yl]ethyl}phenyl)-2-hydroxy-3-methylbutanamide] yielded an Emax [1] of 40%, an EC50 [1] of 47 nM and an EC50 ([2]; Table 1, U937 cells) of 40 nM. The “GITAR > GRAMM % SEP” value ([2]; Table 1) was 38%, the Emax [2, 3] was 5 to 100% and the Emax [2, 4] was 78%.
